Experimental data taken from ChEMBL document CHEMBL5036349, “Development of potent dual PDK1/AurA kinase inhibitors for cancer therapy: Lead-optimization, structural insights, and ADME-Tox profile” (Eur J Med Chem, 2021).
Active and inactive are the calls of the source. No cut-off for these calls is given here.

Key:
HEK293 = test: Cytotoxicity against HEK293 cells at 10 uM measured after 24 to 48 hrs by Cell-titer glo assay relative to control; assay type: cell-based; settings: human, hek293, 10 µM, time 24-48 hrs
[1] = target: Aurora kinase B (Homo sapiens) (UniProt Q96GD4); test: Inhibition of Aurora B kinase (unknown origin) at 10 uM in presence of ATP incubated for 30 min followed by addition of kinase glo-reagent measured after 20 mins by Luminescence based plate reader assay relative to control; settings: time 50.0 min
[2] = target: T1, {'v': 'CYP1A2', 'o': 'p', 'q': 'Inhibition of CYP1A2 (unknown origin)'} (Homo sapiens, UniProt P05177); test: Inhibition of CYP1A2 (unknown origin) at 10 uM pre-incubated for 30 min followed by addition of NADPH and measured after 30 min by Luminescence based plate reader method relative to control; assay type: ADME; settings: time 60 min
T1 sequence (P05177 whole entry): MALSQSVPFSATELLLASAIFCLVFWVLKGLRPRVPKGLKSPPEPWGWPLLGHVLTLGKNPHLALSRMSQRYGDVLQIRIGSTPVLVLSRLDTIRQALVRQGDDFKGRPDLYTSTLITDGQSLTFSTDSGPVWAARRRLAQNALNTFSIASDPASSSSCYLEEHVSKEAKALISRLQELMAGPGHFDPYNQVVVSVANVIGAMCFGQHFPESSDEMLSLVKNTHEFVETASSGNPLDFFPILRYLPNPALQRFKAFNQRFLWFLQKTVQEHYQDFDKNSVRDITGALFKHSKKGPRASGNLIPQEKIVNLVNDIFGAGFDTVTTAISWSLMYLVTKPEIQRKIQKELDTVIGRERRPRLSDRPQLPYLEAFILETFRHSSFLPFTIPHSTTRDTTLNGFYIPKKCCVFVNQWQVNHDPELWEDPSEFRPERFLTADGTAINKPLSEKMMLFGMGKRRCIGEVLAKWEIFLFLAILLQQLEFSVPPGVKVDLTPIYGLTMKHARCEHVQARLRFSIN

[3] = target: {'v': 'CYP2C9', 'o': 'p', 'q': 'Inhibition of CYP2C9 (unknown origin)'} (Homo sapiens, UniProt P11712); test: Inhibition of CYP2C9 (unknown origin) at 10 uM pre-incubated for 30 min followed by addition of NADPH and measured after 30 min by Luminescence based plate reader method relative to control; assay type: ADME; settings: time 60 min
[4] = target: {'v': 'CYP2C19', 'o': 'p', 'q': 'Inhibition of CYP2C19 (unknown origin)'} (Homo sapiens, UniProt P33261); test: Inhibition of CYP2C19 (unknown origin) at 10 uM pre-incubated for 30 min followed by addition of NADPH and measured after 30 min by Luminescence based plate reader method relative to control; assay type: ADME; settings: time 60 min
[5] = target: {'v': 'CYP2D6', 'o': 'p', 'q': 'Inhibition of CYP2D6 (unknown origin)'} (Homo sapiens, UniProt P10635); test: Inhibition of CYP2D6 (unknown origin) at 10 uM pre-incubated for 30 min followed by addition of NADPH and measured after 30 min by Luminescence based plate reader method relative to control; assay type: ADME; settings: time 60 min
MCF7 = test: Cytotoxicity against human MCF7 cells measured after 72 hrs by MTT assay; assay type: functional, cell-based; settings: MCF7, 72 h
CAKI-1 = test: Cytotoxicity against human CAKI-1 cells measured after 72 hrs by MTT assay; assay type: functional, cell-based; settings: CAKI-1, 72 h
786-0 = test: Cytotoxicity against human 786-0 cells measured after 72 hrs by MTT assay; assay type: functional, cell-based; settings: 786-0, 72 h
IGROV-1 = test: Cytotoxicity against human IGROV-1 cells measured after 72 hrs by MTT assay; assay type: functional, cell-based; settings: IGROV-1, 72 h
PC-3 = test: Cytotoxicity against human PC-3 cells measured after 72 hrs by MTT assay; assay type: functional, cell-based; settings: PC-3, 72 h
HCT-116 [6] = test: Cytotoxicity against human HCT-116 cells measured after 72 hrs by MTT assay; assay type: functional, cell-based; settings: HCT-116, 72 h
NCI-H69 = test: Cytotoxicity against human NCI-H69 cells measured after 72 hrs by MTT assay; assay type: functional, cell-based; settings: NCI-H69, 72 h
NCI-H82 = test: Cytotoxicity against human NCI-H82 cells measured after 72 hrs by MTT assay; assay type: functional, cell-based; settings: NCI-H82, 72 h
TC-32 = test: Cytotoxicity against human TC-32 cells measured after 72 hrs by MTT assay; assay type: functional, cell-based; settings: TC-32, 72 h
SK-N-MC [7] = test: Cytotoxicity against human SK-N-MC cells measured after 72 hrs by MTT assay; assay type: functional, cell-based
[8] = Cytotoxicity against human 6647 cells measured after 72 hrs by MTT assay; assay type: functional, cell-based; settings: Homo sapiens, 6647, 72 h
[9] = Cytotoxicity against human TC71 cells measured after 72 hrs by MTT assay; assay type: functional, cell-based; settings: TC-71, 72 h
HCT-116 [10] = test: Cytotoxicity against human HCT-116 cells at 30 uM assessed as cell proliferation rate measured after 72 hrs by MTT assay relative to control; assay type: functional
Rec1 [11] = test: Cytotoxicity against human REC1 cells measured after 72 hrs by MTT assay; assay type: functional, cell-based; settings: Rec1, 72 h
A673 = test: Cytotoxicity against human A673 cells measured after 72 hrs by MTT assay; assay type: functional, cell-based; settings: A673, 72 h
Rec1 [12] = test: Cytotoxicity against human REC1 cells at 30 uM assessed as cell proliferation rate measured after 72 hrs by MTT assay relative to control; assay type: functional
SK-N-MC [13] = test: Cytotoxicity against human SK-N-MC cells at 30 uM assessed as cell proliferation rate measured after 72 hrs by MTT assay relative to control; assay type: functional
[14] = Cytotoxicity against human TC71 cells at 30 uM assessed as cell proliferation rate measured after 72 hrs by MTT assay relative to control; assay type: functional; settings: TC-71
TC-71 = test: Anticlonogenic activity against human TC71 cells assessed as reduction of cell survival at 0.5 to 20 uM measured after 10 days by SRB staining clonogenic survival assay; assay type: functional, cell-based; settings: dose 0.5-20 µM, time 10.0 day
[15] = AUC (infinity) in CD-1 mouse at 10 mg/kg iv measured by UPLC-MS/MS method; assay type: ADME, organism-based; design: time infinity, route intravenous, dose 10 mg/kg; settings: in vivo
[16] = Cmax in CD-1 mouse at 10 mg/kg iv measured by UPLC-MS/MS method; assay type: ADME, organism-based; design: route intravenous, dose 10 mg/kg; settings: in vivo
[17] = Drug uptake in human […] cell at 1.5 uM measured with in 5 min by UPLC-MS/MS analysis; assay type: ADME, tissue-based
SK-N-MC [18] = test: Upregulation of C-Myc protein expression level in human SK-N-MC cell at 1 uM incubated for 2 hrs by western blot analysis; assay type: functional, tissue-based
SK-N-MC [19] = test: Upregulation of p21 protein expression level in human SK-N-MC cell at 1 uM incubated for 2 hrs by western blot analysis; assay type: functional, tissue-based
SK-N-MC [20] = test: Upregulation of Cdc2 protein expression level in human SK-N-MC cell at 1 uM incubated for 2 hrs by western blot analysis; assay type: functional, tissue-based
[21] = target: 3-phosphoinositide-dependent protein kinase 1 (Homo sapiens) (UniProt O15530); test: Modulation in PDK-1 phosphorylation in human SK-N-MC cell at 1 uM measured after 30 min by Western blot analysis
Chain of 3-phosphoinositide-dependent protein kinase 1 (Homo sapiens) (O15530 whole entry, looked up): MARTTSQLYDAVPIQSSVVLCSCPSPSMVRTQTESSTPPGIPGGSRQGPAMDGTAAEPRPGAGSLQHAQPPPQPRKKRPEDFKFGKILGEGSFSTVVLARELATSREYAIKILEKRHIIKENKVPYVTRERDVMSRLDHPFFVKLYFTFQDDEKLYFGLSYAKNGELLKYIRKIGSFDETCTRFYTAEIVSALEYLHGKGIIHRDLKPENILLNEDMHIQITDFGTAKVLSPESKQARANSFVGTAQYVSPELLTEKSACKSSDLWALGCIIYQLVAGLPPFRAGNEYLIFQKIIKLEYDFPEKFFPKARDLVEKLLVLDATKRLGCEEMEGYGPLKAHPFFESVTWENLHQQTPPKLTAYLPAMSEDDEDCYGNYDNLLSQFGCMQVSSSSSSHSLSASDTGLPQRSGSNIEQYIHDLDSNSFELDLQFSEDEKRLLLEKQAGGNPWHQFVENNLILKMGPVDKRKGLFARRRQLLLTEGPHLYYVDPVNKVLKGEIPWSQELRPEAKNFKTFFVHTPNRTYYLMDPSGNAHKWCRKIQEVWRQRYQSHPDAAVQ

Chain of Aurora kinase B (Homo sapiens) (Q96GD4 whole entry): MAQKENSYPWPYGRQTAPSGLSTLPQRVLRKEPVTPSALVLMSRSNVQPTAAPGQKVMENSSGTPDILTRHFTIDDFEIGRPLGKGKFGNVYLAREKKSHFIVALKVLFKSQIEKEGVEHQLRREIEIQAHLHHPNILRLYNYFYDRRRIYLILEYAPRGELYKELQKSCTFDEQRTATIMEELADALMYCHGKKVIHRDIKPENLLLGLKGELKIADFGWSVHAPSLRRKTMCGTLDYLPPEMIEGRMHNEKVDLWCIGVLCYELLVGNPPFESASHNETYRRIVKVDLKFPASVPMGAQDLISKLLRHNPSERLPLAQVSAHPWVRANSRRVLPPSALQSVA
Chain of {'v': 'CYP2C9', 'o': 'p', 'q': 'Inhibition of CYP2C9 (unknown origin)'} (P11712 whole entry): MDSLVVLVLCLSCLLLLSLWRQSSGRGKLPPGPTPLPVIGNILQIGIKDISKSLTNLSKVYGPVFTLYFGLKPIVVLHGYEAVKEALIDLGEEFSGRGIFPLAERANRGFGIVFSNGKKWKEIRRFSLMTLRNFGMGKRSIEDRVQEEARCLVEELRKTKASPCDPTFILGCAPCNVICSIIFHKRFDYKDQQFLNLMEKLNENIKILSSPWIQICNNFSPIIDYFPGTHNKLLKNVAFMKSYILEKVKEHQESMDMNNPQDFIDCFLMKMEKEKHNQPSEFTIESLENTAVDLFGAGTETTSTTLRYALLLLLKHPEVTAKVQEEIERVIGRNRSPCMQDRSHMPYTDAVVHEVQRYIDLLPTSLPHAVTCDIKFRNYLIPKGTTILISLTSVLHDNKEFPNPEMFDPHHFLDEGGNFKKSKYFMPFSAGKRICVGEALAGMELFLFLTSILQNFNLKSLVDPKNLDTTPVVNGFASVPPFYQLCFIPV
Chain of {'v': 'CYP2C19', 'o': 'p', 'q': 'Inhibition of CYP2C19 (unknown origin)'} (P33261 whole entry): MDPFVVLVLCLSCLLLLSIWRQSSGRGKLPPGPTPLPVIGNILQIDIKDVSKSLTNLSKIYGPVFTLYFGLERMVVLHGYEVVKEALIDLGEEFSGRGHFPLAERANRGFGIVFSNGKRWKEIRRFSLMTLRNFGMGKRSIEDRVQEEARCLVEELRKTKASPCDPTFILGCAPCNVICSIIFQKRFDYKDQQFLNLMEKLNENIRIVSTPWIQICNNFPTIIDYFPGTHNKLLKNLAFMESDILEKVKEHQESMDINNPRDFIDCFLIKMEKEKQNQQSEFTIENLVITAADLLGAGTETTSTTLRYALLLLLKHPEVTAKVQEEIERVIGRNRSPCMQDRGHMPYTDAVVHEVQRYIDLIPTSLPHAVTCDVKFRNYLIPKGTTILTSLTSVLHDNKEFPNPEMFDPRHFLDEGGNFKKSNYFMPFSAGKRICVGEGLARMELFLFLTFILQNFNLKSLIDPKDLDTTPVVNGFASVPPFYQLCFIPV
Chain of {'v': 'CYP2D6', 'o': 'p', 'q': 'Inhibition of CYP2D6 (unknown origin)'} (P10635 whole entry): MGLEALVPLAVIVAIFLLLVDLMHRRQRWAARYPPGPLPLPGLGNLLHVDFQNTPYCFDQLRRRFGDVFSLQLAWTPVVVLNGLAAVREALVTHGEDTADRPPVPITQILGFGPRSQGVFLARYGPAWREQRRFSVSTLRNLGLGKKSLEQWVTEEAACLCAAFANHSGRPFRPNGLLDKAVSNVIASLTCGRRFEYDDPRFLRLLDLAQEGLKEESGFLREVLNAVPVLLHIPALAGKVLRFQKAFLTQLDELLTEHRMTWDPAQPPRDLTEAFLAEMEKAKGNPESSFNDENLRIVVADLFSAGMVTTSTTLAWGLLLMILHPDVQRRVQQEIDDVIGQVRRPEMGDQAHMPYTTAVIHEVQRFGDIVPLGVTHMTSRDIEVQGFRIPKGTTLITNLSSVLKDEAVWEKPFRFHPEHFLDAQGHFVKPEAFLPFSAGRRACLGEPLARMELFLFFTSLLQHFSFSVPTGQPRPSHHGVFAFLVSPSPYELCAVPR

## O=C(CCNC(=O)c1cccn(Cc2ccc(F)c(F)c2)c1=O)Nc1ccc2c(c1)/C(=C/c1cnc[nH]1)C(=O)N2
HEK293
  Activity: < 25%
[1]
  inhibition: < 20%
[2]
  inhibition at 0.5 h, 10 µM: > 90%
[3]
  inhibition at 0.5 h, 10 µM: > 90%
[4]
  inhibition at 0.5 h, 10 µM: > 90%
[5]
  inhibition at 0.5 h, 10 µM: > 90%

## Cc1c(Br)cc(C(=O)N[C@@H](C(=O)Nc2ccc3c(c2)/C(=C/c2cnc[nH]2)C(=O)N3)c2ccccc2)c(=O)n1Cc1ccc(F)c(F)c1
HEK293
  Activity: < 25%
[1]
  inhibition: < 20%
[2]
  inhibition at 0.5 h, 10 µM: < 45%
[3]
  inhibition at 0.5 h, 10 µM: < 45%
[4]
  inhibition at 0.5 h, 10 µM: < 45%
[5]
  inhibition at 0.5 h, 10 µM: < 45%
MCF7
  IC50: > 30 µM
CAKI-1
  IC50: > 30 µM
786-0
  IC50: > 30 µM
IGROV-1
  IC50: > 30 µM
PC-3
  IC50: > 30 µM
HCT-116 [6]
  IC50: > 30 µM
NCI-H69
  IC50: > 30 µM
NCI-H82
  IC50: > 30 µM
TC-32
  IC50: > 30 µM
SK-N-MC [7]
  IC50: > 30000 nM
[8]
  IC50: > 30 µM
[9]
  IC50: > 30 µM

## Cc1ccc(C(=O)NCC(=O)Nc2ccc3c(c2)/C(=C/c2cnc[nH]2)C(=O)N3)c(=O)n1Cc1ccc(F)c(F)c1
HEK293
  Activity: < 25%
[1]
  inhibition: < 20%
[2]
  inhibition at 0.5 h, 10 µM: > 90%
[3]
  inhibition at 0.5 h, 10 µM: > 90%
[4]
  inhibition at 0.5 h, 10 µM: > 90%
[5]
  inhibition at 0.5 h, 10 µM: > 90%

## O=C1Nc2ccc(NC(=O)[C@H](NC(=O)c3cccn(Cc4ccc(F)c(F)c4)c3=O)c3ccccc3)cc2/C1=C/c1cnc[nH]1 (stereo in doubt)
HEK293
  Activity: < 25%
HCT-116 [10]
  Emax at 30 µM: 60%
[1]
  inhibition: < 20%
MCF7
  IC50: > 30 µM
CAKI-1
  IC50: > 30 µM
786-0
  IC50: > 30 µM
IGROV-1
  IC50: > 30 µM
PC-3
  IC50: > 30 µM
HCT-116 [6]
  IC50: 3.6 µM
NCI-H69
  IC50: > 30 µM
NCI-H82
  IC50: > 30 µM
Rec1 [11]
  IC50: 11 µM
TC-32
  IC50: > 30 µM
SK-N-MC [7]
  IC50: 3000 nM
[8]
  IC50: 4.8 µM
[9]
  IC50: 16.9 µM
A673
  IC50: > 30 µM
Rec1 [12]
  Emax at 30 µM: 55%
SK-N-MC [13]
  Emax at 30 µM: 75%
[14]
  Emax at 30 µM: 60%
TC-71
  Activity: Dose-Dependent Effect
[15]
  AUC: 5720 ng·h/mL
[16]
  Cmax: 1300 ng/mL
[17]
  Drug uptake: 100 ng/mL
SK-N-MC [18]
  Activity: Active
SK-N-MC [19]
  Activity: Active
SK-N-MC [20]
  Activity: Active
[21]
  Activity: inactive
